{
  "source": "paper PMC12519824",
  "about": "“Fatal outcome of severe serotonin syndrome and acute respiratory distress syndrome after self-poisoning with paroxetine: a case report” (Journal of Medical Case Reports, 2025)",
  "key": {"[1]": {"assay": "N-acetylcysteine treatment after paracetamol overdose (Prescott regimen)", "type": "in vivo, human", "details": "8000 mg paracetamol (160 mg/kg) ingested; e.g. elevated transaminases", "experimental": "(§1) A person with an estimated body weight of 50 kg ingested a total amount of 3150 mg agomelatine (63 mg/kg), 4000 mg paroxetine (80 mg/kg), 8000 mg paracetamol (160 mg/kg), 5000 mg acetylsalicylic acid (100 mg/kg), 1000 mg caffeine (20 mg/kg), and 25,200 mg ibuprofen (504 mg/kg) in suicidal intent (total of 336 pills). […] The patient was reported to be on regular paroxetine therapy. However, the exact dosage and frequency of intake were unknown. […] Owing to reported paracetamol overdose, N-acetylcysteine was administered (Fig. 1) according to the regimen described by Prescott et al.. All other medication—except for paroxetine—was deemed to be no longer clinically relevant by the contacted poison information center, based on the time elapsed since ingestion. […] The patient was then transferred to our tertiary care institution for specialized ARDS treatment. […] Therefore, a symptomatic therapy with olanzapine (10 mg/day) was started. Analgosedation with sufentanil was switched to hydromorphone to prevent further aggregation of serotonin, and corticosteroids were administered in an attempt to enhance paroxetine elimination by CYP2D6 induction. […] Once vv-ECMO was initiated, CytoSorb™ hemoadsorption could easily be added in an attempt to eliminate paroxetine."}, "[2]": {"assay": "Serum paroxetine level monitoring after self-poisoning", "type": "in vivo, human", "excerpt": "However, the exact dosage and frequency of intake were unknown. […] As no severe life-threatening serotonin syndrome symptoms were present at that point and the patient´s condition kept improving, the decision for supportive treatment was made. […] Once vv-ECMO was initiated, CytoSorb™ hemoadsorption could easily be added in an attempt to eliminate paroxetine."}, "[3]": {"details": "indicated value of the test laboratory; ref test laboratory; cited from earlier work"}, "[4]": {"details": "cited from earlier work"}, "[5]": {"assay": "Clinical course of paroxetine overdose in multidrug self-poisoning (case report)", "type": "in vivo, human", "experimental": "as §1"}, "[6]": {"details": "cited from earlier work", "remark": "listed apart in the source"}, "[7]": {"details": "during serotonin syndrome attributed to paroxetine overdose"}},
  "note": "Read-outs that look alike come from different tables or passages of the source.",
  "data": [
    {"smiles": "CC(=O)N[C@@H](CS)C(=O)O", "note": "[acetylcysteine, N-acetylcysteine]", "values": [
      {"measurement": "development of paracetamol poisoning after treatment", "setting": "[1]", "value": "no clinically relevant paracetamol poisoning"}
    ]},
    {"smiles": "Fc1ccc([C@@H]2CCNC[C@H]2COc2ccc3c(c2)OCO3)cc1", "note": "[paroxetine]", "values": [
      {"measurement": "time with paroxetine levels in the lethal dose range", "setting": "[2]; after ingestion of 4000 mg paroxetine", "value": 20, "unit": "days"},
      {"measurement": "concentration at 8 day", "setting": "[2]; human, serum, oral, day 8 after ingestion of 4000 mg paroxetine (80 mg/kg), multidrug poisoning, one patient", "value": 3410, "unit": "ng/mL"},
      {"measurement": "critical value of paroxetine level", "setting": "[3]", "value": "> 120", "unit": "ng/mL"},
      {"measurement": "therapeutic range of paroxetine level", "setting": "[3]", "value": "20 to 65", "unit": "ng/mL"},
      {"measurement": "complication of poisoning in a previous case report", "setting": "[4]; paroxetine poisoning", "value": "severe ARDS"},
      {"measurement": "adverse event with therapeutic intake in one patient", "setting": "[4]; stopped after paroxetine discontinuation", "value": "recurrent ARDS"},
      {"measurement": "clinical toxicity after overdose", "setting": "[5]; 4000 mg paroxetine with co-ingested drugs, person", "value": "severe serotonin syndrome complicated by acute respiratory distress syndrome"},
      {"measurement": "outcome", "setting": "[5]; 4000 mg paroxetine, despite CytoSorb, corticosteroids, olanzapine 10 mg/day and intensive care", "value": "the patient died on day 20 postingestion"},
      {"measurement": "onset of serotonin syndrome (day after ingestion)", "setting": "[5]; 4000 mg paroxetine, persisted until death on day 20", "value": 5, "unit": "days"},
      {"measurement": "recurrent fever", "setting": "[5]; [7]", "value": "up to 39.5 °C"},
      {"measurement": "tachycardia", "setting": "[5]; [7]", "value": "up to 142 bpm"},
      {"measurement": "hypotension", "setting": "[5]; during serotonin syndrome attributed to paroxetine overdose, printed 'hypotension up to', catecholamines needed", "value": "up to 82/52"},
      {"measurement": "plasma protein binding", "setting": "[6]; at therapeutic doses", "value": 95, "unit": "%"},
      {"measurement": "therapeutic half-life", "setting": "[6]", "value": "7 to 37", "unit": "h"},
      {"measurement": "volume of distribution", "setting": "[6]", "value": 17, "unit": "L/kg"},
      {"measurement": "prolonged half-life in poisoning", "setting": "[6]; poisoning with a dose of 1 g paroxetine", "value": 9, "unit": "days"},
      {"measurement": "prolonged half-life in poisoning", "setting": "[6]; poisoning with a dose of 2 g paroxetine", "value": 8, "unit": "days"}
    ]},
    {"smiles": "COc1ccc(C(CN(C)C)C2(O)CCCCC2)cc1", "note": "(stereo not shown) [venlafaxine]", "values": [
      {"measurement": "adverse events after intentional overdose in a case report", "setting": "[4]", "value": "tremors, muscle rigidity, and sustained ankle clonus, followed by ARDS"}
    ]}
  ]
}
